Source: patent publication US9567643B2, “Compositions and methods for treating cancers” (Aptose Biosciences Inc., priority 2013, dated 2017)
Where a name gives a salt, the structure may show the parent alone.

Assays:
[1] = test system: advanced or metastatic solid tumours; experiment: Open-label phase 1 dose-escalating study; assay type: in vivo
Protocol: Phase I: This was an open-label, phase 1 study to determine the maximum tolerated dose (MTD) or appropriate target dose if MTD not reached to identify the recommended phase 2 dose of LOR-253 HCl in patients with advanced or metastatic solid tumours. In the first set of doses, LOR-253 HCl was given in ascending doses until the maximum administered dose or appropriate target dose is reached. In the other set of doses, LOR-253 HCl was given in ascending doses starting from 20 mg/m2 until the maximum administered dose or appropriate target dose is reached. Patient as treated on LOR-253 HCl for 2 cycles for the evaluation. • Other Name: No other names are used. • Study Type: Interventional • Study Design: • Endpoint Classification: Safety Study • Intervention Model: Single Group Assignment • Masking: Open Label • Primary Purpose: Treatment • Official Title: Open-Label, Phase 1 Study of LOR-253 HCl in Patients With Advanced or Metastatic Solid Tumours Primary Outcome Measures: • To determine the maximum tolerated dose (MTD) or appropriate target dose if MTD not reached to identify the recommended phase 2 dose of LOR-253 HCl in patients with advanced or metastatic solid tumours. [Time Frame: 8 weeks] Secondary Outcome Measures: • To characterize the safety profile of LOR-253 HCl when administered to patients with advanced or metastatic solid tumours. [Time Frame: 8 weeks] Inclusion Criteria: • 1. Male or female 18 years of age or older. • 2. Histologically confirmed diagnosis of solid tumor for which no effective therapy is available or that is unresponsive to conventional therapy. • 3. Meet laboratory parameter requirements at study entry. Exclusion Criteria: • 1. Chemotherapy, radiotherapy, biologic therapy, immunotherapy or any other investigational drugs within 21 days of beginning study treatment with LOR-253 HCl. • 2. A hematologic malignancy. • 3. A history of brain or other central nervous system metastases. • 4. Have a presence of a significant infection. • 5. Clinically significant autoimmune disease. • 6. Uncontrolled intercurrent illness. • 7. With iron or copper overload syndromes. • 8. Pregnancy or breast feeding.

Kasumi-1 = Kasumi-1 AML xenograft model; assay type: in vivo, athymic nude mice; settings: Kasumi-1 xenograft; 30 mg/kg (15 mg/kg twice per day) i.v., two consecutive days per week, four weeks; p=0.028 by Student's t-test; FIG. 15
Protocol: (§1) The anti-tumor activity of LOR-253 HCl was evaluated in another in vivo animal model of human AML. The human AML cell line Kasumi-1 was implanted subcutaneously into athymic nude mice. Some tumor-bearing mice were treated with LOR-253 HCl at 30 mg/kg (15 mg/kg twice per day) for two consecutive days per week for four weeks (the “LOR-253 treatment group”). LOR-253 was administered by intravenous (i.v.) bolus injection as the hydrochloric salt form (LOR-253-HCl) formulated in 20% Polyethylene Glycol 400, 10% Propylene Glycol, and 10% Solutol HS in 60% water.
(§2) The major endpoint was to observe for tumor growth inhibition after treatment with LOR-253 HCl and compare the anti-tumor effects of different dosing schedules. Tumor sizes were measured three times per week from day 10 after the tumor cell inoculation. Tumors were measured in three dimensions using calipers and the volume was expressed in millimeters cubed using the formula: V=0.5a×b×c, where a, b, and c are the length, width, and height of the tumor, respectively. Mean tumor volumes+/−standard error (SE) were calculated from each measurement and then plotted in a standard graph to compare the anti-tumor efficacy of drug treatment to that of control (FIG. 15). Toxicity was assessed by clinical observations and by measurement of mouse body weight in grams twice per week over the course of the study. […]

[2] = Toxicity assessment in Kasumi-1 tumor-bearing mice; settings: 15 mg/kg twice per day i.v., two days per week, four weeks
Protocol: as §1, §2

HL-60 = HL-60 AML xenograft model; assay type: in vivo, athymic nude mice; settings: HL-60 xenograft, 3 cycles, FIG. 17
Protocol: The human AML cell line HL-60 was implanted subcutaneously into athymic nude mice. Tumor-bearing mice were treated with LOR-253 HCl alone or in combination with azacitidine, with azacitidine alone, or with a negative control vehicle. The detailed treatment conditions are as follows. • Group 1: Negative control group. LOR-253 HCl control vehicle, 2×/day, 3 cycles of 2 consecutive days, 5 days between cycles, i.v., plus 1% D-mannitol every four days by s.c. injection • Group 2: Azacitidine (in 1% D-mannitol) at 10 mg/kg 1× on days 1, 4, 8, 11, 15 and 18 by subcutaneous (s.c.) injection • Group 3: LOR-253 HCl at 15 mg/kg bid for 3 cycles, each cycle is 2 consecutive days of dosing per week with 5 days of non-dosing, i.v., n=9 (2T-5B) • Group 4: LOR-253 HCl at 15 mg/kg 2×/day (bid) for 3 cycles, each cycle is 1 day of dosing per week with 6 days of non-dosing, i.v., n=9 (1T-6B) • Group 5: Combination of LOR-253 (2T-5B) and azacitidine. LOR-253 HCl at 15 mg/kg bid for 3 cycles, each cycle is 2 consecutive days of dosing per week with 5 days of non-dosing, i.v., n=9 (2T-5B) plus azacitidine at 10 mg/kg 1× every four days by s.c. injection • Group 6: Combination of LOR-253 (1T-6B) and azacitidine. […]
Tumor sizes were measured three times per week.

KG-1 = KG-1 AML xenograft model; assay type: in vivo, mice; settings: KG-1 xenograft; 15 mg/kg-iv, bid, 2T/wk; FIG. 20
Protocol: Xenograft model mice for AML cell line KG-1 was generated with the same method as in Examples 14 and 15, and were treated with LOR-253 HCl or control according to the following regime.
LOR-253—15 mg/kg-iv, bid, 2T/wk—Day 1

THP-1 = THP-1 AML xenograft model; assay type: in vivo, mice; settings: THP-1 xenograft; Group-2: i.v. Days 1, 2, 8, 9, 15, 16 and IP Days 22-25, 29, 30; FIG. 21
Protocol: The anti-tumor activity of LOR-253 HCl, as a single agent and in combination with azacitidine, was evaluated in yet another in vivo animal model of human AML. Xenograft model mice for AML cell line THP-1 was generated with the same method as in Examples 14 and 15, and were treated with LOR-253 HCl alone or in combination with azacitidine, with azacitidine alone, or with a negative control vehicle, and tumor sizes were measured as described in Examples 14 and 15. The detailed treatment conditions are shown as follows, and the results are shown in FIG. 21. • Group 1 Control: received i.v. treatments with LOR-253 control vehicle (CV) on Days 1, 2, 8, 9, 15 &16; received subcutaneous (SC) treatments with Azacitidine control vehicle on Days 1, 4, 8, 11, 15, 18, 22, 25, 29 &32; and received intraperitoneal (IP) treatments with LOR-253-CV on Days 22, 23, 24, 25, 29&30. • Group-2—LOR-253: received i.v. treatments on Days 1, 2, 8, 9, 15 &16; received IP treatments on Days 22, 23, 24, 25, 29&30 • Group-3—Azacitidine: received SC treatments on Days 1, 4, 8, 11, 15, 18, 22, 25, 29 &32. • Group-4—Combination: received i.v. treatments with LOR-253 on Days 1, 2, 8, 9, 15 &16; received IP treatments with LOR-253 on Days 22, 23, 24 &25; and received SC-treatment with Azacitidine on Days 1, 4, 8, 11, 15, 18, 22 &25

[3] = Pharmacokinetics, serum level after i.v. bolus; assay type: in vivo; settings: CD-1 nude mice; i.v. bolus of LOR-253 HCl at 1, 5, 15 mg/kg; FIG. 10
Protocol: To study the pharmacokinetic (PK) […], CD-1 nude mice were treated by i.v. bolus injections of LOR-253 HCl at 1, 5, and 15 mg/kg. The serum level of LOR-253 was measured.

[4] = Repeat-dose toxicity study, cardiovascular effects; assay type: in vivo; settings: dogs, highest dose tested (data not shown)
[5] = target: hERG tail current density (Homo sapiens, UniProt Q12809); experiment: hERG tail current inhibition; assay type: cell-based; settings: preclinical testing
CYP450 enzymes = experiment: CYP450 inhibition; assay type: in vitro ADME; settings: preclinical testing
[6] = GLP blood compatibility studies
[7] = patients with advanced solid tumors, phase I

Chain of hERG tail current density (Q12809 whole entry): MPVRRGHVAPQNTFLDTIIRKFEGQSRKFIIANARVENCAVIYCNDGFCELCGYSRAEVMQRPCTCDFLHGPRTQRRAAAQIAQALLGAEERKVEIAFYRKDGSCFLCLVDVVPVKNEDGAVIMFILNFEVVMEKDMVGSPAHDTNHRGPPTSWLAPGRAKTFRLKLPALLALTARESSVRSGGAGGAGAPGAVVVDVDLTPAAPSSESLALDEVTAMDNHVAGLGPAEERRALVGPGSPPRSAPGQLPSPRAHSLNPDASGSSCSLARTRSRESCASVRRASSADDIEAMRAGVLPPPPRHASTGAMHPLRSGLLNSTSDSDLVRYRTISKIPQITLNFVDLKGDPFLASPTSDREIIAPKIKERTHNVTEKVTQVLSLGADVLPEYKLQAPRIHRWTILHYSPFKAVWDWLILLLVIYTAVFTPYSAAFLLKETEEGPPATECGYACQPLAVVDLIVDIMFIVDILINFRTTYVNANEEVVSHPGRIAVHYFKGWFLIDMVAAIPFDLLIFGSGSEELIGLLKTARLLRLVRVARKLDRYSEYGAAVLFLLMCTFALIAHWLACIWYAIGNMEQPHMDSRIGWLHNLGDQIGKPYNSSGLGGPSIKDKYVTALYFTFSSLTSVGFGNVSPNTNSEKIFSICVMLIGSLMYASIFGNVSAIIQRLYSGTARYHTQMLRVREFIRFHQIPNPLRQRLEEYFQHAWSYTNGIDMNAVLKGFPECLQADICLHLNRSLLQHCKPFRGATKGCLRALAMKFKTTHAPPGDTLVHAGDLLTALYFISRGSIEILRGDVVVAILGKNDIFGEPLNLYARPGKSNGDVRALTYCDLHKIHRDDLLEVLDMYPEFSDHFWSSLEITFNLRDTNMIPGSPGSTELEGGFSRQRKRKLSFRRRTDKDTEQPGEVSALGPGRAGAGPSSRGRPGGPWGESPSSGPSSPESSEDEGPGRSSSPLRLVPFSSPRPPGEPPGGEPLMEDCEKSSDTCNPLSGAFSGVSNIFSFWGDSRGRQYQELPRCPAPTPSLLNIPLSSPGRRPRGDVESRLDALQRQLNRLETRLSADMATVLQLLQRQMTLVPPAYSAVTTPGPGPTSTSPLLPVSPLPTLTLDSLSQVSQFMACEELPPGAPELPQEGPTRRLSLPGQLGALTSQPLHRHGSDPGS

| SMILES | safety profile ([1]; N=27 patients across 7 dose levels, phase I) | tumor response in single patient ([1]; patient with NSCLC (poorly differentiated adenocarcinoma) and extensive metastases refractory to prior therapies, FIG. 12) | RECIST partial response [1, 7] | most common AE and SAE [1, 7] | Stable Disease, share of evaluable patients ([1]; patients with advanced solid tumors, phase I, 7 dose levels) | tumor growth inhibition vs vehicle control (Kasumi-1) | overt signs of toxicity (clinical observations) [2] | body weight ([2]; FIG. 16) | inhibition of tumor growth, single agent (HL-60; Group 3: 15 mg/kg twice per day i.v., two consecutive days per week (2T-5B)) | inhibition of tumor growth, single agent (HL-60; Group 4: 15 mg/kg twice per day i.v., one day per week (1T-6B)) | tumor growth inhibition, single agent (KG-1) | inhibition of tumor growth, single agent (THP-1) | serum level of LOR-253 [3] | cardiovascular effects [4] | inhibition of hERG tail current density [5] | inhibition of CYP450 enzymes (CYP450 enzymes) | blood compatibility of IV formulation [6] |
| --- | --- | --- | --- | --- | --- | --- | --- | --- | --- | --- | --- | --- | --- | --- | --- | --- | --- |
| Cc1[nH]c2ccc(F)cc2c1-c1nc2c3cccnc3c3ncccc3c2[nH]1 [LOR-253 HCl] | Excellent Safety Profile | Tumor shrinkage | No RECIST PR | Fatigue and 1 case of reversible hypophosphatemia | 41% | significant tumor growth inhibition | did not show other overt signs of toxicity | did not show body weight loss | approximately the same extent as or slightly more than azacitidine alone | approximately the same extent as or slightly more than azacitidine alone | significant tumor growth inhibition | about the same extent as or slightly more than azacitidine alone |  |  |  |  |  |
| Cc1[nH]c2ccc(F)cc2c1-c1nc2c3cccnc3c3ncccc3c2[nH]1 [LOR-253] |  |  |  |  |  |  |  |  |  |  |  |  | dose related increase | no treatment-related cardiovascular effects | no significant inhibition | no significant inhibition | confirmed the suitability of IV formulation |
